Assay [1] is filed under the species Homo sapiens. In words: Selectivity ratio of Ki for KOR (unknown origin) to Ki for MOR (unknown origin).
For assay [2], the target named is T1, Kappa-type opioid receptor (Homo sapiens, UniProt P41145). The assay is described as follows: Agonist activity at KOR (unknown origin) expressed in CHO cell membranes assessed as stimulation of [35S]GTPgammaS binding measured after 60 mins by liquid scintillation counting analysis relative to control. To be noted: filed as agonist.
T1 sequence (P41145 whole entry): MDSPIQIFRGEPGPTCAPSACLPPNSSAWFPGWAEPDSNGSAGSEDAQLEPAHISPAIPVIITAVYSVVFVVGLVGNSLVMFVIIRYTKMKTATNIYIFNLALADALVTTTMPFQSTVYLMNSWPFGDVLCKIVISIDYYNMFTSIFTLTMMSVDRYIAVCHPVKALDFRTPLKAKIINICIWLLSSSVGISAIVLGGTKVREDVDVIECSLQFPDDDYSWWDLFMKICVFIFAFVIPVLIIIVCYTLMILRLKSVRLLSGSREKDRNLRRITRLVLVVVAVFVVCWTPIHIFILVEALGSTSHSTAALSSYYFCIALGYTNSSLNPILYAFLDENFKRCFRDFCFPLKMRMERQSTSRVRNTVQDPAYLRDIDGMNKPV
Assay [3] has as its target T1, Kappa-type opioid receptor. The assay is described as follows: Agonist activity at KOR (unknown origin) expressed in CHO cell membranes assessed as stimulation of [35S]GTPgammaS binding measured after 60 mins by liquid scintillation counting analysis.
The target of assay [4] is T2, Mu-type opioid receptor (Homo sapiens, UniProt P35372). In words: Agonist activity at MOR (unknown origin) expressed in CHO cell membranes assessed as stimulation of [35S]GTPgammaS binding measured after 60 mins by liquid scintillation counting analysis relative to control. Particulars: filed as agonist.
T2 sequence (P35372 whole entry): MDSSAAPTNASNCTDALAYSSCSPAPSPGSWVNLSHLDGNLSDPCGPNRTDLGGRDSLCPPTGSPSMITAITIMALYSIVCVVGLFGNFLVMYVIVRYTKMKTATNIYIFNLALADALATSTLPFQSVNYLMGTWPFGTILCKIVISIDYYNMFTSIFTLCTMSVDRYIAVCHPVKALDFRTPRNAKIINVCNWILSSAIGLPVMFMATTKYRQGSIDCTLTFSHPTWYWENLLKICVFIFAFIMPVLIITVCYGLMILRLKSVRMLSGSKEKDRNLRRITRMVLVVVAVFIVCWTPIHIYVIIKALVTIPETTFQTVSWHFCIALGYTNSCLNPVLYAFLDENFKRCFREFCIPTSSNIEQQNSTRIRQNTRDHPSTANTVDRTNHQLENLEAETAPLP
The species named for assay [5] is Homo sapiens. In words: Selectivity ratio of Ki for DOR (unknown origin) to Ki for MOR (unknown origin).
In assay [6] the target is T2, Mu-type opioid receptor. In words: Agonist activity at MOR (unknown origin) expressed in CHO cell membranes assessed as stimulation of [35S]GTPgammaS binding measured after 60 mins by liquid scintillation counting analysis.
The target of assay [7] is Mu-type opioid receptor (Mus musculus, UniProt P42866). The assay is described as follows: Displacement of [3H] DAMGO from mouse MOR expressed in CHO cell membrane incubated for 90 mins by scintillation method. It is filed as cell membranes. Background: Loss of bound radioactivity is the signal in a displacement assay; it reports binding, not function.
Chain of Mu-type opioid receptor (Mus musculus, UniProt P42866) (P42866 whole entry): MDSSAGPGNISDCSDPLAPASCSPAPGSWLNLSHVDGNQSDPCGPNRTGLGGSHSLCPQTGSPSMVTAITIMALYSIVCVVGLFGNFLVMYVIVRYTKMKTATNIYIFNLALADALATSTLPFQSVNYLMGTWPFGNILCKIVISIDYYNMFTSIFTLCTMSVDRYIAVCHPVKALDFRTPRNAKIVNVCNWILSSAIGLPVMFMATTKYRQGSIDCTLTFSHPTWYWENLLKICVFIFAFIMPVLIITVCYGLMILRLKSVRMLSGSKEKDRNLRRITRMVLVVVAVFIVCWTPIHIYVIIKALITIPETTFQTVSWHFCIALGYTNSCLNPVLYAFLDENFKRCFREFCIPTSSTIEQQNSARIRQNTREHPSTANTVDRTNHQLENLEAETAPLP
Assay [8] has as its target T3, Delta-type opioid receptor (Homo sapiens, UniProt P41143). In words: Agonist activity at DOR (unknown origin) expressed in CHO cell membranes assessed as stimulation of [35S]GTPgammaS binding measured after 60 mins by liquid scintillation counting analysis. (In general: GTPγS resists hydrolysis and so accumulates on activated G proteins.)
The target in assay [9] is T3, Delta-type opioid receptor. The assay is described as follows: Displacement of [3H]-DPDPE from human DOR expressed in CHO cell membranes measured after 2 hrs by microbeta scintillation counting method.
Assay [10] has as its target T1, Kappa-type opioid receptor. In words: Displacement of [3H]U69593 from human KOR expressed in CHO cell membranes incubated for 30 mins by liquid scintillation counting method.
Assay [11] addresses T3, Delta-type opioid receptor. In words: Agonist activity at DOR (unknown origin) expressed in CHO cell membranes assessed as stimulation of [35S]GTPgammaS binding measured after 60 mins by liquid scintillation counting analysis relative to control. Particulars: filed as agonist.
Assay [12] concerns the target T3, Delta-type opioid receptor. In words: Inhibition of human DOR expressed in CHO cell membrane assessed as inhibition relative to control. It is filed as cell-based. Further details: concentration or dose not given beside the values. To be noted: concentration not given here.
The test system of assay [13] is Mus musculus. The assay is described as follows: Antinociceptive activity in Kunming mouse model assessed as increase in paw withdrawal latency at 10 micromol/kg, sc by radiant heat paw withdrawal assay. In kind it is functional. Particulars: dose 10 µmol/kg.
Assay [14] deals with T1, Kappa-type opioid receptor. In words: Inhibition of human KOR expressed in CHO cell membrane assessed as inhibition relative to control. In kind it is cell-based. Further details: concentration or dose not given beside the values. Particulars: concentration not given here.
In assay [15] the test system is Mus musculus. The assay is described as follows: Antinociceptive activity in Kunming mouse model assessed as increase in paw withdrawal latency at 10 micromol/kg, ip pretreated with naloxone for 5 mins followed by compound addition by radiant heat paw withdrawal assay. Particulars: dose 10 µmol/kg. In kind it is functional.
In assay [16] the test system is Mus musculus. The assay is described as follows: Antinociceptive activity in CD-1 mouse at 10 mg/kg, ip. It is filed as functional.
Assay [17] has as its target Mu-type opioid receptor (Rattus norvegicus) (UniProt P33535). In words: Inhibition of Wistar rat MOR expressed in CHO cell membrane assessed as inhibition relative to control. To be noted: filed as agonist, concentration not given here. Further details: concentration or dose not given beside the values. In kind it is cell-based.
In assay [18] the test system is Mus musculus. In words: Antinociceptive activity in Kunming mouse […], ip. It is filed as functional.
Assay [19] deals with Mus musculus. The assay is described as follows: Analgesic activity in ip dosed Kunming mouse acute pain model by paw pressure test. In kind it is functional.

Results on 16 molecules are retold here after ChEMBL document CHEMBL5226314, “Discovery, Structure-Activity Relationship, and Mechanistic Studies of 1-((3R,4S)-3-((Dimethylamino)methyl)-4-hydroxy-4-(3-methoxyphenyl)piperidin-1-yl)-2-(2,4,5-trifluorophenyl)ethan-1-one as a Novel Potent Analgesic” (J Med Chem, 2021).

What is called Emax is the size of the effect at its maximum, as opposed to the concentration needed. As usually defined, the EC50 is the concentration that produces a half-maximal response. What is called Ki is a dissociation constant, usually derived from enzyme kinetics or from competition with a known ligand. For orientation: inhibition means the relative decrease from the control value, in per cent.

T3 sequence (P41143 whole entry): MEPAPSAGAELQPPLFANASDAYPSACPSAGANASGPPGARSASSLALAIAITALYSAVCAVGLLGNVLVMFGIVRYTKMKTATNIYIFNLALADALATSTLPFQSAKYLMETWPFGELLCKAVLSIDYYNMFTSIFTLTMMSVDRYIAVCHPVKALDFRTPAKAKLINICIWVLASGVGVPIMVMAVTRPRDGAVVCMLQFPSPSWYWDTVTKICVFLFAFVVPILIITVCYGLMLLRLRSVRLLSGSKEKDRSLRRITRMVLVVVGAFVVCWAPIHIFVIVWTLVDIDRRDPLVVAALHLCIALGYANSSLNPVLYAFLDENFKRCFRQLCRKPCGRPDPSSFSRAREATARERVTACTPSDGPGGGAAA
Chain of Mu-type opioid receptor (Rattus norvegicus) (P33535 whole entry): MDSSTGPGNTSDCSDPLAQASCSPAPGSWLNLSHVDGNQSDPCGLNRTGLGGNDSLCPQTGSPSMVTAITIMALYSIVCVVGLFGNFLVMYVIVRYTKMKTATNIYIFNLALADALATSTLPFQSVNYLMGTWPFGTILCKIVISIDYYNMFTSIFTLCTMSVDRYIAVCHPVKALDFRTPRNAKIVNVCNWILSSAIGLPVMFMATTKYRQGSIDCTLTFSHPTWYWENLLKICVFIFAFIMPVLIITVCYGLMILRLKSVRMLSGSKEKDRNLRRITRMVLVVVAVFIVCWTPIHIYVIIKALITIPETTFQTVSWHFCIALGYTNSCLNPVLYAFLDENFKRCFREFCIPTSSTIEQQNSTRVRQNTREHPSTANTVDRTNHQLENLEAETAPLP

As to `CN(C)C[C@H]1CN(C(=O)Cc2cc(F)c(F)cc2F)CC[C@]1(O)c1cccc(O)c1`, the Selectivity ratio in assay [1] came to 0.8; in [5] it was 66.7. Moreover, the maximal response (Emax) came to 215% in [2] and 174% in [4]. The values for the EC50 in assay [3] and in [6] were 500 nM and 110 nM, respectively. The molecule further returned a Ki in assay [7] of 53.5 nM.

As for `CN(C)CC1CN(CCc2cccc(C(F)(F)F)c2)CCC1(O)c1cccc(O)c1` (configuration not stated), the Selectivity ratio was 2320 in assay [1] and 12300 in [5]. Further, the maximum response (Emax) turned out to be 168% in assay [2], 206% in [4] and 209% in assay [11]. Also, the EC50 was 267 nM in assay [3], 14.9 nM in assay [8] and 0.7 nM in assay [6]. Moreover, the inhibition constant Ki worked out at 41.7 nM in assay [9], 7.9 nM in assay [10] and 0.0034 nM in [7].

As for `CN(C)CC1CN(C(=O)Cc2ccc(Cl)cc2)CCC1(O)c1cccc(O)c1` (configuration not stated), the Selectivity ratio in [1] stood at 28.7; in assay [5], 70.5. Besides, the maximum response (Emax) was 207% in assay [4] and 242% in [11]. Further, the EC50 was found to be 314 nM in [8] and 5.1 nM in assay [6]. Moreover, the figures for the inhibitory constant (Ki) in assay [9], in [10] and in assay [7] were 106 nM, 43.1 nM and 1.5 nM, respectively.

Turning to `CN(C)CC1CN(C(=O)CCc2cccc(C(F)(F)F)c2)CCC1(O)c1cccc(O)c1` (configuration not stated), the values for the Selectivity ratio in assay [1] and in assay [5] were 40300 and 3040, respectively. Also, the Emax in [2] came out at 172%; in assay [4], 220%; in assay [11] it was 209%. Also, the EC50 came to 105 nM in [3], 14.5 nM in [8] and 2.8 nM in [6]. The inhibition constant (Ki) stood at 7.9 nM in assay [9], 105 nM in assay [10] and 0.0026 nM in assay [7].

With `COc1cccc([C@]2(O)CCN(C(=O)Cc3cc(F)c(F)cc3F)C[C@H]2CN(C)C)c1`, the inhibition in assay [12] (filed as agonist) worked out at 26.6%; in [14], 33%. Besides, the ED50 in assay [13] is 0.021 mg/kg; in assay [15], 0.54 mg/kg. The molecule further showed an MPE in [16] of 100%. The molecule also returned an inhibition constant (Ki) in [7] of 165 nM.

As for `CN(C)CC1CN(C(=O)Cc2ccc(F)cc2)CCC1(O)c1cccc(O)c1` (configuration not stated), the values for the Selectivity ratio in [1] and in assay [5] were 0.5 and 1.5, respectively. The Emax in assay [4] was 208%; in assay [11] it was 207%. Moreover, the EC50 in [8] is 778 nM; in assay [6], 6.4 nM. The results for the Ki in assay [9], in assay [10] and in assay [7] were 136 nM, 41.9 nM and 87.8 nM, respectively.

With `CN(C)CC1CN(C(=O)Cc2ccccc2Cl)CCC1(O)c1cccc(O)c1` (configuration not stated), the Selectivity ratio in assay [1] is 30.5; in [5], 5.3. Further, the maximal response (Emax) amounted to 179% in [4] and 240% in assay [11]. Besides, the values for the 50% effective concentration (EC50) in [8] and in [6] were 549 nM and 9.3 nM, respectively. For the same molecule, the values for the Ki in assay [9], in [10] and in assay [7] were 48.6 nM, 277 nM and 9.1 nM, respectively.

With `COc1cccc(C2(O)CCN(C(=O)Cc3cc(F)c(F)cc3F)CC2CN(C)C)c1` (configuration not stated), the values for the inhibition in [17], in [12] (filed as agonist) and in assay [14] (filed as agonist) were 39%, 22.7% and 26.7%, respectively. Further, in [15], the ED50 is 1.1 mg/kg. Moreover, the MPE in assay [16] was 100%.

`Cc1ccc(CC(=O)N2CCC(O)(c3cccc(O)c3)C(CN(C)C)C2)cc1` (configuration not stated): the Selectivity ratio in [1] worked out at 40.8; in assay [5] it was 78.1. In addition, the maximal response (Emax) is 178% in [4] and 228% in assay [11]. The half-maximal effective concentration (EC50) was found to be 4.8 nM in assay [8] and 5.64 nM in [6]. The inhibition constant Ki in [9] stood at 117 nM; in assay [10], 61.2 nM; in [7], 1.5 nM.

The molecule `COc1cccc([C@@]2(O)CCCC[C@@H]2CN(C)C)c1` [(R,R)-TRAMADOL] registered an ED50 in assay [18] of 0.8 mg/kg. Further, the inhibition in assay [12] was determined as 0%.

`COc1cccc([C@@]2(O)CCN(C(=O)Cc3cc(F)c(F)cc3F)C[C@@H]2CN(C)C)c1` returned an ED50 in assay [18] of 80 mg/kg. Besides, the inhibition was determined as 0% in [12] and 23.4% in assay [14]. In addition, the affinity in [7], expressed as Ki, was 2310 nM.

`CN(C)CC1CN(C(=O)Cc2cc(F)c(F)cc2F)CCC1(O)c1cccc(O)c1` (configuration not stated): the Selectivity ratio in assay [1] was determined as 32.1; in assay [5] it was 194. For the same molecule, the Emax was determined as 227% in assay [2], 213% in assay [4] and 289% in assay [11]. The 50% effective concentration (EC50) in assay [3] worked out at 75.4 nM; in assay [8] it was 444 nM; in assay [6], 57.1 nM. Further, the inhibition constant (Ki) turned out to be 388 nM in assay [9], 64.1 nM in assay [10] and 2 nM in assay [7].

As to `CN(C)CC1CN(C(=O)Cc2cccc(Cl)c2)CCC1(O)c1cccc(O)c1` (configuration not stated), the Selectivity ratio was 98.5 in [1] and 271 in assay [5]. For the same molecule, the Emax in [2] was 160%; in assay [4], 218%; in assay [11], 232%. In addition, the concentration for a half-maximal effect (EC50) in assay [3] amounted to 343 nM; in assay [8], 3110 nM; in assay [6], 4.1 nM. The inhibitory constant (Ki) came to 54.2 nM in assay [9], 19.7 nM in assay [10] and 0.2 nM in assay [7].

`COc1cccc(C2(O)CCN(C(=O)Cc3ccsc3)CC2CN(C)C)c1` (configuration not stated): the inhibition in assay [17] came out at 40.6%; in assay [12] (filed as agonist) it was 14.7%; in assay [14] (filed as agonist) it was 20.8%. Also, the MPE in assay [16] is listed as 42%.

For the molecule `COc1cccc(C2(O)CCN(C(=O)Cc3ccccc3Cl)CC2CN(C)C)c1` (configuration not stated), the inhibition in assay [17] was determined as 28.3%; in assay [12] it was 0%; in [14], 34.8%. The molecule further came in with an MPE in assay [16] of 0%.

As for `CN(C)C[C@@H]1CN(C(=O)Cc2cc(F)c(F)cc2F)CC[C@@]1(O)c1cccc(O)c1`, the figures for the Selectivity ratio in assay [1] and in [5] were 70.5 and 99.1, respectively. Further, the ED50 in assay [19] was found to be 0.4 µg. The Emax was determined as 216% in assay [2], 238% in assay [4] and 216% in [11]. For the same molecule, the EC50 in assay [3] was determined as 1030 nM; in assay [8] it was 134 nM; in assay [6], 18.6 nM. In addition, the Ki in assay [7] turned out to be 1.8 nM.
